Test results taken from the supplement of paper PMC6045584.
± gives the standard deviation of the averaged measurements.

Experiments:
[1] = compound: C#Cc1cccc(Nc2ncnc3cc(OCCOC)c(OCCOC)cc23)c1 [ERLOTINIB]; assay: surviving fraction relative to DMSO-only wells; higher = less growth inhibition; details: exposure time: 5 days
Outline: (§1)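 Lines were retained only if, across three screens, replicate Pearson r was >0.7 and median Z' was >0.3. Viability was measured as CellTiter-Glo luminescence and reported as surviving fraction relative to the median of DMSO-only wells. Readings followed 10 minutes at room temperature, after log-phase tumour cells seeded at 250–500 per well in 384-well plates had been exposed, from 24 hours after seeding, continuously for five days to inhibitors at 0.5, 1, 5, 10, 50, 100, 500 and 1000 nM.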

[2] = compound: O=C(O)CC[C@H]1CC[C@@](c2cc(F)ccc2F)(S(=O)(=O)c2ccc(Cl)cc2)CC1 [MK0752]; assay: as above; details: exposure time: 5 days
Outline: as §1

Test System	surviving fraction ([1]; 0.5 nM)	surviving fraction ([1]; 1 nM)	surviving fraction ([1]; 5 nM)	surviving fraction ([1]; 10 nM)	surviving fraction ([1]; 50 nM)	surviving fraction ([1]; 100 nM)	surviving fraction ([1]; 500 nM)	surviving fraction ([2]; 0.5 nM)	surviving fraction ([2]; 1 nM)	surviving fraction ([2]; 5 nM)	surviving fraction ([2]; 10 nM)	surviving fraction ([2]; 50 nM)	surviving fraction ([2]; 100 nM)	surviving fraction ([2]; 500 nM)	surviving fraction ([2]; 1000 nM)	surviving fraction ([1]; 1000 nM)
SYO1 SYNOVIAL	1.02 ± 0.016	1.04 ± 0.034	1.03 ± 0.017	0.986 ± 0.067	1.01 ± 0.023	1.01 ± 0.015	1.02 ± 0.028	1 ± 0.024	0.981 ± 0.029	0.9374 ± 0.0056	1 ± 0.042	1.04 ± 0.082	1.01 ± 0.02	0.98 ± 0.052	0.971 ± 0.018	–
BT20 BREAST	1.22 ± 0.026	1.19 ± 0.11	1.19 ± 0.11	1.13 ± 0.069	1.08 ± 0.069	1.12 ± 0.034	1.03 ± 0.034	1.16 ± 0.11	1.03 ± 0.11	1.09 ± 0.12	1.1 ± 0.17	1.03 ± 0.17	0.941 ± 0.19	0.914 ± 0.096	0.829 ± 0.19	0.947 ± 0.081
SG27 HEADNECK	1 ± 0.036	0.979 ± 0.051	1.08 ± 0.062	1.06 ± 0.16	1.2 ± 0.082	1.1 ± 0.052	1.1 ± 0.037	0.973 ± 0.05	0.891 ± 0.052	1.05 ± 0.082	0.988 ± 0.096	1.01 ± 0.066	1.08 ± 0.047	0.933 ± 0.14	0.923 ± 0.16	1.1 ± 0.065
22RV1 PROSTATE	1.1 ± 0.11	1.01 ± 0.12	1.03 ± 0.048	1 ± 0.028	1.04 ± 0.072	0.956 ± 0.17	0.991 ± 0.18	1.08 ± 0.069	1.1 ± 0.012	1.09 ± 0.021	1.04 ± 0.058	1.07 ± 0.092	1.11 ± 0.07	1.09 ± 0.044	1.08 ± 0.026	1.08 ± 0.021
JIMT1 BREAST	1 ± 0.012	0.994 ± 0.044	–	0.9948 ± 0.0084	1 ± 0.015	1.02 ± 0.076	0.809 ± 0.025	0.966 ± 0.0054	0.988 ± 0.018	0.997 ± 0.042	0.97 ± 0.042	0.984 ± 0.021	1.04 ± 0.036	0.939 ± 0.021	0.997 ± 0.018	0.731 ± 0.031
SG28 HEADNECK	1.2 ± 0.12	1.1 ± 0.021	1.13 ± 0.07	–	–	1.097 ± 0.0071	0.546 ± 0.052	1.15 ± 0.048	1.04 ± 0.062	1.05 ± 0.055	1.1 ± 0.027	0.982 ± 0.075	1.05 ± 0.044	1.12 ± 0.13	1.13 ± 0.11	1.23 ± 0.1
MDAMB157 BREAST	0.981 ± 0.071	0.985 ± 0.11	–	0.998 ± 0.056	0.97 ± 0.091	1.04 ± 0.018	0.999 ± 0.073	0.881 ± 0.054	0.981 ± 0.045	0.969 ± 0.14	1.05 ± 0.022	1.11 ± 0.16	1.02 ± 0.15	0.971 ± 0.07	0.962 ± 0.065	–
HMT3552 BREAST	1.03 ± 0.024	1.04 ± 0.036	0.994 ± 0.029	1.03 ± 0.02	1.02 ± 0.064	0.957 ± 0.034	0.85 ± 0.08	1.05	1.07	1.01	0.985	1.04	1.16	1.11	1.12	0.808 ± 0.053
T47D BREAST	1.13 ± 0.059	1.08 ± 0.052	1.13 ± 0.084	1.09 ± 0.028	1.18 ± 0.039	1.17 ± 0.048	1.16 ± 0.084	1.07 ± 0.025	1.07 ± 0.011	1.04 ± 0.022	1.1 ± 0.015	1.11 ± 0.071	1.14 ± 0.018	1.09 ± 0.044	1.11 ± 0.02	1.12 ± 0.039
SCC47 HEADNECK	1.13 ± 0.079	1.11 ± 0.015	1.231 ± 0.0078	1.17 ± 0.092	1.15 ± 0.051	1.07 ± 0.021	0.822 ± 0.052	1.13 ± 0.12	1.17 ± 0.034	1.2 ± 0.089	1.14 ± 0.029	1.14 ± 0.064	1.18 ± 0.038	1.03 ± 0.067	1.06 ± 0.058	0.724 ± 0.037
H23 LUNG	–	1.04 ± 0.038	0.998 ± 0.065	0.992 ± 0.055	0.774 ± 0.051	0.488 ± 0.016	0.349 ± 0.015	1.064 ± 0.004	1.11 ± 0.053	1.1 ± 0.061	1.07 ± 0.063	1.104 ± 0.0052	1.17 ± 0.1	1.103 ± 0.0038	1.13 ± 0.058	0.336 ± 0.015
MDAMB231 BREAST	1.01 ± 0.028	0.997 ± 0.013	1.02 ± 0.019	1.02 ± 0.011	1.04 ± 0.019	1.06 ± 0.027	1.06 ± 0.028	0.984 ± 0.033	0.993 ± 0.015	1.02 ± 0.019	1.01 ± 0.02	1.01 ± 0.013	1.01 ± 0.018	0.9137 ± 0.0079	0.877 ± 0.01	1.03 ± 0.029
HU09 BONE	1.08 ± 0.11	0.986 ± 0.073	1.12 ± 0.073	1.04 ± 0.1	1.11 ± 0.029	1.1 ± 0.024	1.04 ± 0.061	0.995 ± 0.11	1.06 ± 0.052	1.11 ± 0.052	1.181 ± 0.0032	1.12 ± 0.069	1.06 ± 0.088	0.984 ± 0.14	1.03 ± 0.063	0.965 ± 0.062
MCF7 BREAST	0.942 ± 0.022	0.9629 ± 0.007	0.993 ± 0.044	0.953 ± 0.053	1.084 ± 0.0061	1.03 ± 0.018	1.03 ± 0.042	0.922 ± 0.075	0.916 ± 0.04	0.916 ± 0.0061	0.905 ± 0.076	0.976 ± 0.051	0.913 ± 0.07	0.964 ± 0.067	0.94 ± 0.029	–
SAOS2 BONE	1.22 ± 0.066	1.2 ± 0.044	1.18 ± 0.095	1.24 ± 0.035	1.26 ± 0.12	1.23 ± 0.051	1.09 ± 0.094	1.18 ± 0.028	1.2037 ± 0.00058	1.19 ± 0.12	1.22 ± 0.077	1.237 ± 0.0098	1.19 ± 0.076	1.12 ± 0.019	1.092 ± 0.0035	1.05 ± 0.075
COLO320DM LARGE INTESTINE	1.17 ± 0.18	0.993 ± 0.074	1.06 ± 0.094	1.09 ± 0.12	1.155 ± 0.011	1.02 ± 0.078	1.04 ± 0.039	1.09 ± 0.11	1.18 ± 0.065	1.16 ± 0.1	1.18 ± 0.049	1.14 ± 0.01	1.2 ± 0.087	1.17 ± 0.096	1.25 ± 0.27	0.99 ± 0.032
